Four compounds from PMC3575251, “Urease inhibitory activities of β-boswellic acid derivatives” (DARU Journal of Pharmaceutical Sciences, 2013) can be followed below.

For this experiment, the target named is T1, Jack bean urease (Canavalia ensiformis, UniProt P07374).
T1 construct: purchased Fluka Co, Switzerland
Kind of experiment: biochemical. The following applies: for inhibition at 50 µg/mL: read-out: Percent of inhibition (50 μg/ml). The protocol:
For urease inhibition assays after addition of phosphate buffer pH = 6.8, sonication was performed for 3 min, followed by centrifugation and evaluating absorbance of upper solution in λ = 278 nm which is attributed to the urease. By using following equation […], where c is the concentration of solution (mol/L), b the Length of the UV cell, we can calculate the concentration of initially urease solution in this way. After appropriate dilution, the concentration of enzyme solution adjusted 2 mg/ml.
The assay mixture, containing 50 μl (2 mg/ml) of Jack-bean urease and 100 μl of different concentration of test compounds, which were dissolved in ethanol 20% previously, was added to 850 μl of 25mM urea and pre-incubated for 0.5 h in water bath at 37°C. The urease reaction was stopped after 30 min incubation by following procedure.
Urease activity was determined by measuring ammonia production using the indophenol method as described by Weatherburn. After pre-incubation, 500 μl of phenol reagent (1% w/v phenol and 0.005% w/v sodium nitroprusside) and 500 μl of alkali reagent (1% w/v NaOH and 0.075% active chloride NaOCl) were added to 100 μl of incubation mixture and kept at 37°C for 30 min.
The absorbance was measured at 625 nm. […] Percentage inhibitions were calculated using the formula (100 – (OD sample / OD control) × 100).
The concentration that provokes an inhibition halfway between the minimum and maximum response of each compound (relative IC50) was determined by monitoring the inhibition effect of various concentrations of compounds in the assay. The IC50 values were then calculated using GraphPad Prism 5 software.

The term IC50 denotes the point on the concentration scale where inhibition reaches its midpoint.

T1 sequence (P07374 whole entry, looked up): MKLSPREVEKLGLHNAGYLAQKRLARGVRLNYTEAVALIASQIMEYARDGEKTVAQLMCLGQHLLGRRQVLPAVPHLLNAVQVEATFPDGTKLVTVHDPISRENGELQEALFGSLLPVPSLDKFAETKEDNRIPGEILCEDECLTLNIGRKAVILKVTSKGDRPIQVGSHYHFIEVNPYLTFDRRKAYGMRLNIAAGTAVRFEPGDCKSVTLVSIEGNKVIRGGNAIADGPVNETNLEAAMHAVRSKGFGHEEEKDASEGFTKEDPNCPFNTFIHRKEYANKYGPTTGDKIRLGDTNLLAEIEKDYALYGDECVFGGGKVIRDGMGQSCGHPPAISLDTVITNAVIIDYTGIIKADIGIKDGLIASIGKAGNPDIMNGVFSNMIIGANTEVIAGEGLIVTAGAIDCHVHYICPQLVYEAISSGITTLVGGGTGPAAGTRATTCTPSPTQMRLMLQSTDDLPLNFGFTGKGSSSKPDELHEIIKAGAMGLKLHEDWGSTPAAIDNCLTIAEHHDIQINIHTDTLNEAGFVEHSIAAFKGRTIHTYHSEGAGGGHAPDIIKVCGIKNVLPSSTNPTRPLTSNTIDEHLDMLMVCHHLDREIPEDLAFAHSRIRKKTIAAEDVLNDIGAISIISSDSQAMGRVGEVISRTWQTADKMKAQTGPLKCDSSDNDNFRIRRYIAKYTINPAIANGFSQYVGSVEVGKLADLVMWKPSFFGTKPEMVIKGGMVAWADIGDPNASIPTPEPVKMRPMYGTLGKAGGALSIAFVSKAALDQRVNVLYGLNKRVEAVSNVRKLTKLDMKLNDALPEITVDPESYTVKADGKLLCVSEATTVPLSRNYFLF

Consider `NC(N)=S` [Thiourea, thiourea, reference compound], for which the “Percent of inhibition (50 μg/ml)” value (50 μg/ml test compound, Jack bean urease, 25 mM urea, 37°C) came out at 88.0%.

Consider `C[C@H]1[C@H](C)CC[C@]2(C)CC[C@]3(C)C(=CC(=O)[C@@H]4[C@@]5(C)CC[C@@H](O)[C@](C)(C(=O)O)[C@@H]5CC[C@]43C)[C@H]12` [compound 4, 11-keto-β-boswellic acid], for which the IC50 was 85.23 ± 0.065 µM and the inhibition at 50 µg/mL turned out to be 39.1%.

Turning to `CC(=O)OC1CCC2(C)C(CCC3(C)C2C(O)C=C2C4C(C)C(C)CCC4(C)CCC23C)C1(C)C(=O)O` (stereo not drawn) [compound 2, 3-O-acetyl-11-hydroxy-β-boswellic acid], the concentration for half-maximal inhibition (IC50) stood at 9.21 ± 0.069 µM and the inhibition at 50 µg/mL stood at 56.2%.

`CC(=O)O[C@@H]1CC[C@@]2(C)[C@@H](CC[C@]3(C)[C@@H]2C(=O)C=C2[C@@H]4[C@@H](C)[C@H](C)CC[C@]4(C)CC[C@]23C)[C@@]1(C)C(=O)O` [compound 3, 3-O-acetyl-11-keto-β-boswellic acid]: the IC50 is 16.34 ± 0.063 µM and the inhibition at 50 µg/mL is 37.4%.
